Laboratory results taken from patent publication US20240415919A1, “COMPOSITIONS AND METHODS FOR TREATMENT OF AUTOIMMUNE DISORDERS AND CANCER” (Dana-Farber Cancer Institute, Inc., priority 2021, published 2024).
Where “and” joins values, the source holds several entries; their conditions need not be identical. Equal values may be shown once. Entries after “also recorded” stand apart in the source; their conditions may differ.

Legend:
Type in all cases: in vivo, mouse
MCMV = assay: Murine MCMV infection model with FL9-68 vaccination
Protocol: FIG. 10A-C provides a graphical representation showing FL9-68-dependent mobilization of CD8 Treg dampens autoantibody responses during MCMV infection. WT B6 mice were infected with MCMV (2×10^5 pfu) and vaccinated with (100 ug/dose) FL9-68 in IFA or IFA alone at day 0, 8 and 12. Mice were bled at day 3, 10 and 18 and levels of anti-dsDNA Ab (panel A), viral titer (panel B) and frequency of activated CD8 Treg (panel C, Ly49+NKG2D+CD8) are shown.

FL9.2 T cells = assay: FL9 peptide immunization of hosts adoptively transferred with FL9.2 T cells; conditions: i.p. immunization with peptide in CFA; CD45.1+ B6 or TCRα-/- hosts
Protocol: CD45.1+B6 hosts were adoptively transferred with FL9.2 T cells and immunized i.p. with FL9 in CFA or no peptide (CFA alone) on day 0. Three days later, activation (CD69) proliferation of FL9.2 T cells (Ki67) was measured.
(§1) CD45.1^+ B6 or TCRα^−/− mice were transferred with CFSE labelled 2×10^6 FL9.2 Tg T cells followed by i.p. immunization with 100 μg FL9 or FL9-68 peptides in CFA. Proliferation and activation of FL9.2 Tg T cells in the adoptive hosts were analzyed by assessing CFSE dilution, Ki67 and CD69 expression at day 3 and 6 after transfer.
as §1, with “CD45.1^+B6” for “CD45.1^+ B6”

[1] = test system: I-Ab/Ova323-339 Tet+ CD4 cells; assay: FL9-68 vaccination followed by Ova323-339/CFA immunization
Protocol: FIG. 58(E) CD45.1^+ B6 mice that were vaccinated with FL9-68 in CFA or CFA alone on day 0 were immunized with Ova323-339 peptide in CFA on day 6. The frequency of I-Ab/Ova323-339 Tet^+ CD4 cells in activated (CD44^+) CD4 cells in the spleen and dLN was analyzed on day 14.

FYAEATLML [FL9-68, FL9 peptide variant containing a P→L substitution at pos 7; superagonist for CD8 Treg]
NKG2D+Ly49+ CD8 T cells (activated CD8 Treg) (MCMV; mouse, in vivo): increase of NKG2D+Ly49^+ CD8 T cells
production of anti-dsDNA Ab (MCMV; vaccination at days 0, 8 and 12 after viral infection): significantly reduced production of anti-dsDNA Ab
in vivo activation/proliferation of transferred FL9 TCR+ CD8 T cells (FL9.2 T cells): activated FL9 TCR^+ CD8 T cells; also recorded: activates FL9 T cells in vivo
inhibition of the response of I-Ab/Ova323-339 tet+ CD4 cells ([1]; FL9-68 in CFA day 0, Ova323-339/CFA day 6, analysis day 14): 50% and > 50%
numbers or percent of non-specifically activated CD4 cells ([1]; same experiment as E6): did not reduce the numbers or percent of non-specifically activated CD4 cells
